Key:
LuIII VLP (VP2) [1] = molecular target: T1, LuIII VLP (VP2) (LuIII virus, UniProt P36310); assay: Max-Planck glycan microarray, fluorescence; assay type: binding; conditions: immobilised glycan; DyLight488-labelled VLP 0.1 mg/mL, PBS-MK (MgCl2, KCl), 4 °C overnight
T1 construct: VP2-only virus-like particle without DNA, T=1 icosahedral 60-mer, baculovirus/Sf9; residues 37-587 modelled
Excerpt: Max-Planck glycan microarray, fluorescence on LuIII VLP (VP2)

MVM / MVMp VLP (VP2) = molecular target: T2, MVM / MVMp VLP (VP2) (Murine minute virus strain MVM prototype, UniProt P03137); assay: Max-Planck glycan microarray, fluorescence; assay type: binding; conditions: immobilised glycan; DyLight488-labelled VLP 0.4 mg/mL, PBS-MK (MgCl2, KCl), 4 °C overnight
T2 construct: VP2-only virus-like particle without DNA, T=1 icosahedral 60-mer, baculovirus/Sf9; DyLight488-labelled
Excerpt: Max-Planck glycan microarray, fluorescence on MVM / MVMp VLP (VP2)

LuIII VLP (VP2) [2] = molecular target: T1, LuIII VLP (VP2); assay: CFG glycan microarray v4.[…], antibody fluorescence; assay type: binding; conditions: immobilised glycan; unlabelled VLP 0.2 mg/mL, PBS, room temperature, 1 h
[3] = molecular target: H-1 parvovirus virus-like particle (VLP) composed of VP2, the major capsid protein (H-1 parvovirus); assay: cryo-EM structure; VLPs of VP2 in 10 mM Tris-HCl, 500 mM NaCl, 8 mM CaCl2, 2 mM MgCl2, pH 7.5, with or without glycan (s(LN)3 or s(Le^x)2); icosahedral reconstruction in cisTEM, 60mer models fitted
[4] = molecular target: LuIII virus-like particle (VLP) composed of VP2, the major capsid protein (parvovirus LuIII); assay: as above

“Neu5Acα2-3Gαlβ1-4GlcNAcβ1-3Gαlβ1-4Glcβ-AH [compound 6]” showed an RFU (LuIII VLP (VP2) [1]) of 106 ± 37 RFU and an RFU (MVM / MVMp VLP (VP2)) of 153 ± 24 RFU.
Work on `CC(=O)N[C@H]1[C@H](O[C@H]2[C@@H](O)[C@@H](CO)O[C@@H](O[C@H]3[C@H](O)[C@@H](CO)O[C@@H](OCCN)[C@@H]3NC(C)=O)[C@@H]2O)O[C@H](CO)[C@@H](O[C@@H]2O[C@H](CO)[C@H](O)[C@H](O[C@]3(C(=O)O)C[C@H](O)[C@@H](NC(C)=O)[C@H]([C@H](O)[C@H](O)CO)O3)[C@H]2O)[C@@H]1O` [compound 293, Neu5Acα2-3Galβ1-4GlcNAcβ1-3Galβ1-3GlcNAcβ-Sp0] yielded an RFU (LuIII VLP (VP2) [2]) of 728 ± 180 RFU.
In the case of Neu5Acα2-3Gαlβ1-4Glcβ-AH [compound 9], the RFU (LuIII VLP (VP2) [1]) is reported as 267 ± 44 RFU and the RFU (MVM / MVMp VLP (VP2)) is reported as 109 ± 102 RFU.
For Neu5Acα2-6Gαlβ1-4Glcβ-AH [compound 8], the RFU (LuIII VLP (VP2) [1]) was 105 ± 13 RFU.
In the case of `CC(=O)N[C@H]1[C@H](OCCCN)O[C@H](CO)[C@@H](O[C@@H]2O[C@H](CO)[C@H](O)[C@H](O[C@]3(C(=O)O)C[C@H](O)[C@@H](NC(C)=O)[C@H]([C@H](O)[C@H](O)CO)O3)[C@H]2O)[C@@H]1O[C@@H]1O[C@@H](C)[C@@H](O)[C@@H](O)[C@@H]1O` [compound 253, Neu5Acα2-3Galβ1-4(Fucα1-3)GlcNAcβ-Sp8], the RFU (LuIII VLP (VP2) [2]) is reported as 1,685 ± 423 RFU.
For “Fucα1-3(Neu5Acα2-3Gαlβ1-4)GlcNAcβ1-3Gαlβ1-4Glcβ-AH [compound 7]”, the RFU (LuIII VLP (VP2) [1]) was 151 ± 23 RFU.
Work on “H-1 parvovirus virus-like particle (VLP) composed of VP2, the major capsid protein (natural protein)” yielded a stoichiometry N [3] of 60.
Work on “Neu5Acα2-6Gαlβ1-4GlcNAc-6-sulfαteβ-AH [compound 10]” yielded an RFU (MVM / MVMp VLP (VP2)) of 203 ± 36 RFU.
`CC(=O)N[C@H]1[C@H](O[C@H]2[C@@H](O)[C@@H](CO)O[C@@H](O[C@H]3[C@H](O)[C@@H](O)[C@H](OCCCN)O[C@@H]3CO)[C@@H]2O)O[C@H](CO)[C@@H](O)[C@@H]1O[C@@H]1O[C@H](CO)[C@H](O)[C@H](O)[C@H]1O[C@@H]1O[C@@H](C)[C@@H](O)[C@@H](O)[C@@H]1O` [compound 65, Fucα1-2Galβ1-3GlcNAcβ1-3Galβ1-4Glcβ-Sp8] showed an RFU (LuIII VLP (VP2) [2]) of 601 ± 93 RFU.
In the case of “LuIII virus-like particle (VLP) composed of VP2, the major capsid protein (natural protein)”, the stoichiometry N [4] is reported as 60.

From publication PMC12363179, “Mapping the sialic acid-binding sites of LuIII and H-1 parvovirus” (Journal of Virology, 2025)
